Results as given in patent US20260041811A1, “HYDROGEL FOR THE REDUCTION OF BIOFILMS” (PAUL HARTMANN AG, priority 2022, published 2026).

Conditions: alkaline pH versus neutral and acidic pH

With `O=C([O-])CN(CCN(CC(=O)[O-])CC(=O)[O-])CC(=O)[O-].[Ag+].[Ag+].[Zn+2]` [Ag2Zn(EDTA)] the “stability of the active ingredient-containing solution (precipitation)” value was “can be stabilized by an alkaline pH”.
